Laboratory results taken from patent US20150191462A1, “PYRROLIDINE DERIVATIVES AND THEIR USE AS COMPLEMENT PATHWAY MODULATORS” (priority 2012, published 2015).

Target: Recombinant human factor D (Homo sapiens, UniProt P00746)
Assay: Human Complement Factor D Assay: Method 1
Assay type: biochemical
Conditions: Factor D inhibition, 10 nM factor D, Z-Lys-thiobenzyl substrate, fluorescence readout
Description: Human Complement Factor D Assay: Method 1 Recombinant human factor D (expressed in E. coli and purified using standard methods) at 10 nM concentration is incubated with test compound at various concentrations for 1 hour at room temperature in 0.1 M Hepes buffer, pH 7.5, containing 1 mM MgCl2, 1 M NaCl and 0.05% CHAPS. […] The increase in fluorescence is recorded at excitation of 485 nm and emission at 535 nm in a microplate spectrofluorimeter. IC50 values are calculated from percentage of inhibition of complement factor D-activity as a function of test compound concentration.

Recombinant human factor D, sequence (P00746 26-253): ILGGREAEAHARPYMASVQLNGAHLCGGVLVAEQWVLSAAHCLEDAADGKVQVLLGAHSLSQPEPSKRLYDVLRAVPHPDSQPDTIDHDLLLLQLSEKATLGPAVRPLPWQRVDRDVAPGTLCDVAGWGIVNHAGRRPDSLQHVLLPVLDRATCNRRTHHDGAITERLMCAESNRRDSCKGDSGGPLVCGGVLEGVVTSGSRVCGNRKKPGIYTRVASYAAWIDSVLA

SMILES | IC50 [nM]
NC(=O)c1nn(CC(=O)N2[C@@H]3C[C@@H]3C[C@H]2C(=O)Nc2cncc(Br)n2)c2ncccc12 [Example 1, 1-{2-[(1R,3S,5R)-3-(6-Bromo-pyrazin-2-ylcarbamoyl)-2-aza-bicyclo[3.1.0]hex-2-yl]-2-oxo-ethyl}-1H-pyrazolo[3,4-b]pyridine-3-carboxylic acid amide] | 19
CCc1cc2c(C(N)=O)nn(CC(=O)N3[C@@H]4C[C@@H]4C[C@H]3C(=O)Nc3cccc(C(F)(F)F)n3)c2cn1 [Example 2, 5-Ethyl-1-{2-oxo-2-[(1R,3S,5R)-3-(6-trifluoromethyl-pyridin-2-ylcarbamoyl)-2-aza-bicyclo[3.1.0]hex-2-yl]-ethyl}-1H-pyrazolo[3,4-c]pyridine-3-carboxylic acid amide] | 18
NC(=O)c1nn(CC(=O)N2[C@@H]3C[C@@H]3C[C@H]2C(=O)Nc2cccc(Br)n2)c2nnccc12 [Example 3, 1-{2-[(1R,3S,5R)-3-(6-Bromo-pyridin-2-ylcarbamoyl)-2-aza-bicyclo[3.1.0]hex-2-yl]-2-oxo-ethyl}-1H-pyrazolo[3,4-c]pyridazine-3-carboxylic acid amide] | 24
NC(=O)c1nn(CC(=O)N2[C@@H]3C[C@@H]3C[C@H]2C(=O)Nc2cccc(Br)n2)c2cnc(C3CC3)cc12 [Example 5, 1-{2-[(1R,3S,5R)-3-(6-Bromo-pyridin-2-ylcarbamoyl)-2-aza-bicyclo[3.1.0]hex-2-yl]-2-oxo-ethyl}-5-cyclopropyl-1H-pyrazolo[3,4-c]pyridine-3-carboxylic acid amide] | 4
CC(=O)c1nn(CC(=O)N2[C@@H]3C[C@@H]3C[C@H]2C(=O)Nc2cccc(OC(F)F)n2)c2ccc(OCc3ncccn3)cc12 [Example 6, (1R,3S,5R)-2-{2-[3-Acetyl-5-(pyrimidin-2-ylmethoxy)-indazol-1-yl]-acetyl}-2-aza-bicyclo[3.1.0]hexane-3-carboxylic acid (6-difluoromethoxy-pyridin-2-yl)-amide] | 38
Cc1ncc(NC(=O)[C@@H]2C[C@H]3C[C@H]3N2C(=O)Cn2nc(C(N)=O)c3ccccc32)nc1Br [Example 7, 1-{2-[(1R,3S,5R)-3-(6-Bromo-5-methyl-pyrazin-2-ylcarbamoyl)-2-aza-bicyclo[3.1.0]hex-2-yl]-2-oxo-ethyl}-1H-indazole-3-carboxylic acid amide] | 6
Cc1ccc2c(C(N)=O)nn(CC(=O)N3[C@@H]4C[C@@H]4C[C@H]3C(=O)Nc3cccc(Br)n3)c2c1 [Example 8, 1-{2-[(1R,3S,5R)-3-(6-Bromo-pyridin-2-ylcarbamoyl)-2-aza-bicyclo[3.1.0]hex-2-yl]-2-oxo-ethyl}-6-methyl-1H-indazole-3-carboxylic acid amide] | 5
NC(=O)c1nn(CC(=O)N2[C@@H]3C[C@@H]3C[C@H]2C(=O)Nc2cncc(C(F)(F)F)n2)c2ccccc12 [Example 9, 1-{2-Oxo-2-[(1R,3S,5R)-3-(6-trifluoromethyl-pyrazin-2-ylcarbamoyl)-2-aza-bicyclo[3.1.0]hex-2-yl]ethyl}-1H-indazole-3-carboxylic acid amide] | 32
NC(=O)c1nn(CC(=O)N2[C@@H]3C[C@@H]3C[C@H]2C(=O)Nc2cccc(Br)n2)c2ccncc12 [Example 10, 1-{2-[(1R,3S,5R)-3-(6-Bromo-pyridin-2-ylcarbamoyl)-2-aza-bicyclo[3.1.0]hex-2-yl]-2-oxo-ethyl}-1H-pyrazolo[4,3-c]pyridine-3-carboxylic acid amide] | 9
NC(=O)c1nn(CC(=O)N2[C@@H]3C[C@@H]3C[C@H]2C(=O)Nc2cccc(Br)n2)c2cc(F)ccc12 [Example 11, 1-{2-[(1R,3S,5R)-3-(6-Bromo-pyridin-2-ylcarbamoyl)-2-aza-bicyclo[3.1.0]hex-2-yl]-2-oxo-ethyl}-6-fluoro-1H-indazole-3-carboxylic acid amide] | 5
CC(=O)c1nn(CC(=O)N2[C@@H]3C[C@@H]3C[C@H]2C(=O)Nc2cnc(C)c(Br)n2)c2cnccc12 [Example 12, (1R,3S,5R)-2-[2-(3-Acetyl-pyrazolo[3,4-c]pyridin-1-yl)-acetyl]-2-aza-bicyclo[3.1.0]hexane-3-carboxylic acid (6-bromo-5-methyl-pyrazin-2-yl)-amide] | 16
CC(=O)c1nn(CC(=O)N2C[C@H](F)C[C@H]2C(=O)Nc2cccc(Br)n2)c2cnccc12 [Example 13, (2S,4R)-1-[2-(3-Acetyl-pyrazolo[3,4-c]pyridin-1-yl)-acetyl]-4-fluoro-pyrrolidine-2-carboxylic acid (6-bromo-pyridin-2-yl)-amide] | 9
CC(=O)c1nn(CC(=O)N2[C@@H]3C[C@@H]3C[C@H]2C(=O)Nc2cncc(Br)n2)c2cnccc12 [Example 14, (1R,3S,5R)-2-[2-(3-Acetyl-pyrazolo[3,4-c]pyridin-1-yl)-acetyl]-2-aza-bicyclo[3.1.0]hexane-3-carboxylic acid (6-bromo-pyrazin-2-yl)-amide] | 11
CC(=O)c1nn(CC(=O)N2C[C@H]3C[C@H]3[C@H]2C(=O)Nc2cccc(Br)n2)c2cnccc12 [Example 15, (1R,2S,5S)-3-[2-(3-Acetyl-pyrazolo[3,4-c]pyridin-1-yl)-acetyl]-3-aza-bicyclo[3.1.0]hexane-2-carboxylic acid (6-bromo-pyridin-2-yl)-amide] | 14
CC(=O)c1nn(CC(=O)N2[C@@H]3C[C@@H]3C[C@H]2C(=O)Nc2cncc(C(F)(F)F)n2)c2ccccc12 [Example 16, (1R,3S,5R)-2-[2-(3-Acetyl-indazol-1-yl)-acetyl]-2-aza-bicyclo[3.1.0]hexane-3-carboxylic acid (6-trifluoromethyl-pyrazin-2-yl)-amide] | 17
CC(=O)c1nn(CC(=O)N2[C@@H]3C[C@@H]3C[C@H]2C(=O)Nc2cncc(C(F)(F)F)n2)c2cnccc12 [Example 17, (1R,3S,5R)-2-[2-(3-Acetyl-pyrazolo[3,4-c]pyridin-1-yl)-acetyl]-2-aza-bicyclo[3.1.0]hexane-3-carboxylic acid (6-trifluoromethyl-pyrazin-2-yl)-amide] | 64
CO[C@H]1[C@@H](C(=O)Nc2cccc(Br)n2)N(C(=O)Cn2nc(C(C)=O)c3ccncc32)C[C@@H]1F [Example 18, (2S,3S,4S)-1-[2-(3-Acetyl-pyrazolo[3,4-c]pyridin-1-yl)-acetyl]-4-fluoro-3-methoxy-pyrrolidine-2-carboxylic acid (6-bromo-pyridin-2-yl)-amide] | 7
C[C@@]1(F)C[C@@H](C(=O)Nc2cccc(Br)n2)N(C(=O)Cn2nc(C(N)=O)c3ccccc32)C1 [Example 19, 1-{2-[(2S,4R)-2-(6-Bromo-pyridin-2-ylcarbamoyl)-4-fluoro-4-methyl-pyrrolidin-1-yl]-2-oxo-ethyl}-1H-indazole-3-carboxylic acid amide] | 11
NC(=O)c1nn(CC(=O)N2[C@@H]3C[C@@H]3C[C@H]2C(=O)Nc2cccc(Cl)n2)c2ccccc12 [Example 20, 1{2-[(1R,3S,5R)-3-(6-Chloro-pyridin-2-ylcarbamoyl)-2-aza-bicyclo[3.1.0]hex-2-yl]-2-oxo-ethyl}-1H-indazole-3-carboxylic acid amide] | 4
NC(=O)c1nn(CC(=O)N2[C@@H]3C[C@@H]3C[C@H]2C(=O)Nc2cccc(I)n2)c2ccccc12 [Example 21, 1-{2-[(1R,3S,5R)-3-(6-Iodo-pyridin-2-ylcarbamoyl)-2-aza-bicyclo[3.1.0]hex-2-yl]-2-oxo-ethyl}-1H-indazole-3-carboxylic acid amide] | 3
COc1cc(Br)nc(NC(=O)[C@@H]2C[C@H]3C[C@H]3N2C(=O)Cn2nc(C(N)=O)c3ccccc32)c1 [Example 22, 1-{2-[(1R,3S,5R)-3-(6-Bromo-4-methoxy-pyridin-2-ylcarbamoyl)-2-aza-bicyclo[3.1.0]hex-2-yl]-2-oxo-ethyl}-1H-indazole-3-carboxylic acid amide] | 5
NC(=O)c1nn(CC(=O)N2C[C@H](F)[C@H](F)[C@H]2C(=O)Nc2cccc(Br)n2)c2ccccc12 [Example 23, 1-{2-[(2R,3R,4S)-2-(6-Bromo-pyridin-2-ylcarbamoyl)-3,4-difluoro-pyrrolidin-1-yl]-2-oxo-ethyl}-1H-indazole-3-carboxylic acid amide] | 8
NC(=O)c1nn(CC(=O)N2C[C@H](F)C[C@H]2C(=O)Nc2cccc(Br)n2)c2cnc(CF)cc12 [Example 24, 1-(2-((2S,4R)-2-(6-bromopyridin-2-ylcarbamoyl)-4-fluoropyrrolidin-1-yl)-2-oxoethyl)-5-(fluoromethyl)-1H-pyrazolo[3,4-c]pyridine-3-carboxamide] | 7
NC(=O)c1nn(CC(=O)N2CCS[C@H]2C(=O)Nc2cccc(Br)n2)c2ccccc12 [Example 25, (S)-N-(6-bromopyridin-2-yl)-3-(2-(3-carbamoyl-1H-indazol-1-yl)acetyl)thiazolidine-2-carboxamide] | 10
CNC(=O)c1nn(CC(=O)N2[C@@H]3C[C@@H]3C[C@H]2C(=O)Nc2cccc(Br)n2)c2ccccc12 [Example 26, 1-(2-((1R,3S,5R)-3-((6-bromopyridin-2-yl)carbamoyl)-2-azabicyclo[3.1.0]hexan-2-yl)-2-oxoethyl)-N-methyl-1H-indazole-3-carboxamide] | 40
NC(=O)c1nn(CC(=O)N2CC[C@H](F)[C@H]2C(=O)Nc2cccc(Br)n2)c2ccccc12 [Example 27, 1-(2-((2R,3S)-2-((6-bromopyridin-2-yl)carbamoyl)-3-fluoropyrrolidin-1-yl)-2-oxoethyl)-1H-indazole-3-carboxamide] | 80
NC(=O)c1nn(CC(=O)N2C3CC(C3)C2C(=O)Nc2cccc(Br)n2)c2ccccc12 (stereo not drawn) [Example 28, N-(6-bromopyridin-2-yl)-2-(2-(3-carbamoyl-1H-indazol-1-yl)acetyl)-2-azabicyclo[2.1.1]hexane-3-carboxamide] | 120
